ChEMBL document CHEMBL1130891, “Solid-phase synthesis of N-substituted amidinophenoxy pyridines as factor XA inhibitors” (Bioorg Med Chem Lett, 1998)

Biological target: Coagulation factor X (Homo sapiens, UniProt P00742)
Test: Binding affinity was evaluated against Coagulation factor X

Chain of Coagulation factor X (P00742 41-179 limits assumed): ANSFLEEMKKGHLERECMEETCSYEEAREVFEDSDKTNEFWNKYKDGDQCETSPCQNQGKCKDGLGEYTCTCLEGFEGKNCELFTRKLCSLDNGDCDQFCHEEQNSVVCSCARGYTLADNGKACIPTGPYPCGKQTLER
Chain of Coagulation factor X (P00742 235-488 limits assumed): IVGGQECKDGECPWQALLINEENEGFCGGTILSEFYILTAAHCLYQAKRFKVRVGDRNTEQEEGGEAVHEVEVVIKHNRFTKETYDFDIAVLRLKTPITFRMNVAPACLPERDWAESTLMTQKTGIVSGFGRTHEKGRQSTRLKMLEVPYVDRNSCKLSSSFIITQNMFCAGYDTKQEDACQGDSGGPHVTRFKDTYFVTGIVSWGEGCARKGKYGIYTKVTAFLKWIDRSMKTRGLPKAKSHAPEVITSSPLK

Row | Structure (SMILES) | Ki
1 | N=C(N)c1cccc(COc2ccccc2)c1 | 0.0068 µM
2 | Cc1c(F)c(Oc2cccc(C(=N)N)c2)nc(N2CCC(C)(c3ccccc3)CC2)c1F | 0.56 µM
3 | CCOC(=O)C1CCCN(c2nc(Oc3cccc(C(=N)N)c3)c(F)c(C)c2F)C1 (stereo not drawn) | > 5 µM
4 | Cc1c(F)c(NCCN(C)C)nc(Oc2cccc(C(=N)N)c2)c1F | > 5 µM
5 | Cc1c(F)c(NCCCN2CCCC2=O)nc(Oc2cccc(C(=N)N)c2)c1F | > 5 µM
6 | Cc1c(F)c(Oc2cccc(C(=N)N)c2)nc(N2CCC[C@H]2CO)c1F | > 5 µM
7 | Cc1c(F)c(Oc2cccc(C(=N)N)c2)nc(N2CCN(c3ccco3)CC2)c1F | > 5 µM
8 | Cc1c(F)c(NC2CCCCC2)nc(Oc2cccc(C(=N)N)c2)c1F | > 5 µM
9 | CCCOCCNc1nc(Oc2cccc(C(=N)N)c2)c(F)c(C)c1F | > 5 µM
10 | N=C(N)c1ccc(/C=C2/CCCC/C(=C/c3ccc(C(=N)N)cc3)C2=O)cc1 | 0.013 µM
11 | Cc1c(F)c(Oc2cccc(C(=N)N)c2)nc(N2CCN(C)CC2)c1F | > 5 µM
12 | Cc1c(F)c(Oc2cccc(C(=N)N)c2)nc(N2CCN(c3ccc4c(c3)OCO4)CC2)c1F | > 5 µM
13 | Cc1c(F)c(Oc2cccc(C(=N)N)c2)nc(OC2CCNC2)c1F (stereo not drawn) | > 5 µM
14 | N=C(N)c1ccccc1 [BENZAMIDINE] | 0.41 µM
15 | CC(=N)N1CCC(Oc2nc(Oc3cccc(C(=N)N)c3)c(F)c(C)c2F)C1 (stereo not drawn) | > 5 µM
16 | Cc1c(F)c(Oc2cccc(C(=N)N)c2)nc(N2CCN(C3CCCCC3)CC2)c1F | 0.495 µM
17 | Cc1cccc(C)c1N1CCN(c2nc(Oc3cccc(C(=N)N)c3)c(F)c(C)c2F)CC1 | > 5 µM
18 | Cc1c(F)c(Oc2cccc(C(=N)N)c2)nc(N2CCN(CC(=O)N3CCOCC3)CC2)c1F | > 5 µM
